Drawing on PubChem BioAssay AID1419 (Emory University Molecular Libraries Screening Center, 2008), this text covers IC50 and fold change for 49 compounds.

A short description of this assay: blockers of an Epstein-Barr virus protein-peptide interaction – biochemical, fluorescence polarization, dose response (AID 1419). As to conditions: cell-free protein-peptide binding, 2 h; for fold change: measured here: P channel fold over control, at 54 µM. On the technique in general: Polarisation of emitted light reports the rotation of a fluorescent probe.

Active and inactive are the calls of the source. No rule for the calls is given here.

As to `O=C(CCN1C(=O)COc2ccccc21)NCc1ccco1`, the IC50 is > 54 µM (inactive) and the fold change was determined as 1.02.
For `CSC1=NSC2=NC(=O)/C(=C/c3coc4ccccc4c3=O)C(=N)N12` the same measures were 1.78 µM and 106.
In the same order, the values of `CC(=O)N1CCCc2cc(S(=O)(=O)N(CC(C)C)CC(C)C)ccc21` are > 54 µM (inactive) and 0.967.
In the same order, the values of `O=c1nc2c(O)cccn2c2c1c(=O)[nH]c1ccccc12` are < 0.42 µM and 7.35.
For `CC1CCc2c(sc3nc(CN4CCOCC4)nc(NS(=O)(=O)c4cccc([N+](=O)[O-])c4)c23)C1` (stereo not drawn), the IC50 is > 54 µM (inactive) and the fold change was determined as 1.13.
For `Cc1nn(-c2ccccc2)c2c1C(c1ccccc1)C(C#N)=C(N)O2` (stereo not drawn), the IC50 was > 54 µM (inactive) and the fold change was 1.01.
In the same order, the values of `Cn1c(=O)c(Nc2ccc(O)cc2)c2c3c(cccc31)C(=O)c1ccccc1-2` are < 0.42 µM and 3.86.
For `O=C(N/N=C/c1ccccc1Cl)c1nc2ccc([N+](=O)[O-])cc2c(=O)[nH]1` the same measures were > 54 µM (inactive) and 0.977.
In the same order, the values of `N#Cc1c2nc3ccccc3nc2n2cc(NC(=O)c3ccc(F)cc3)ccc12` are 4.15 µM and 0.583.
On to `Oc1ccccc1C=NC1=NN(c2cccc(C(F)(F)F)c2)CC1`, for which the IC50 was 3.11 µM and the fold change came out at 19.9.
For `COc1ccccc1NC(=O)/C(C#N)=C/c1cc([N+](=O)[O-])ccc1N1CCCC1` the same measures were 4.7 µM and 60.1.
`O=C1c2cccc3c(O)ccc(c23)C(=O)N1Cc1ccccc1`: the IC50 was < 0.42 µM and the fold change turned out to be 138.
For `Fc1ccc(/C=N/NC2=Nc3cccc4cccc2c34)cc1` the same measures were 7.4 µM and 3.32.
For `O=C(C1=NN(c2ccccc2)C2C(=O)N(c3ccccc3)C(=O)C12)c1ccccc1` (stereo not drawn) the same measures were 6.24 µM and 3.88.
For `Cc1c(N=C2N=C(NC(=O)c3ccc(F)cc3)c3ccccc32)c(=O)n(-c2ccccc2)n1C` the same measures were 6.56 µM and 6.09.
Consider `Nc1ccc(-c2nc3ccc(C(=O)O)cc3s2)cc1`, for which the IC50 is > 54 µM (inactive) and the fold change worked out at 1.
In the same order, the values of `COc1ccccc1NC(=O)C(=O)N/N=C/c1ccc([N+](=O)[O-])s1` are > 54 µM (inactive) and 1.09.
Regarding `CCCCNc1ccc2c3c(cccc13)C(=O)N(CCCC)C2=O`, the IC50 is < 0.42 µM and the fold change came out at 98.3.
`O=C1C(Br)=Cc2cccc3cccc1c23`: the IC50 was 2 µM and the fold change worked out at 7.55.
In the same order, the values of `Cc1cc([N+](=O)[O-])ccc1-c1ccc(/C=N/NC(=O)Cc2ccccc2)o1` are 6.04 µM and 10.6.
In the case of `COc1ccc(-n2cccc2/C=C2\C(=N)N3N=C(c4ccco4)SC3=NC2=O)cc1`, the IC50 is 2.85 µM and the fold change came to 1.17.
`CC(=O)N/N=C/c1cc(C(C)C)cc(/C=N/NC(C)=O)c1O`: the IC50 is 2.84 µM and the fold change came out at 4.18.
In the same order, the values of `Cn1c(=O)[nH]c2cc(Cl)cnc21` are 7.23 µM and 2.34.
For `CC(O)CCc1nc2ccc(C(=O)O)cc2[nH]1` (stereo not drawn) the same measures were > 54 µM (inactive) and 0.983.
For `COC(=O)CN1C(=S)N(c2ccc(OC)cc2)C(=O)/C1=C/c1ccc(N2CCOCC2)cc1` the same measures were 6.67 µM and 2.83.
Take `Cc1nnc(NC(=O)COc2ccc3c(C)cc(=O)oc3c2)s1`: the IC50 was > 54 µM (inactive) and the fold change amounted to 1.06.
In the same order, the values of `COc1ccc(C2C(C(=O)c3cccs3)=C(O)C(=O)N2c2nncs2)cc1` (stereo not drawn) are < 0.42 µM and 13.
For `Cc1cc(=O)oc2c3c4c(cc12)OCCN4CCC3` the same measures were 3.95 µM and 3.5.
On to `Cc1c2ccccc2nc2c(F)c(N(C)C)c(F)c(F)c12`, for which the IC50 was < 0.42 µM and the fold change was 8.81.
For `CC(=O)Oc1ccc2c(c1)O/C(=C\c1ccncc1)C2=O` the same measures were 3.08 µM and 10.9.
In the same order, the values of `Cc1cccc(N=Nc2c(O)[nH]c3ccc(F)cc23)c1` are 2.03 µM and 12.
For `CCN1CC=C2C(C#N)=C(N)C(C#N)(C#N)[C@H](c3ccoc3)[C@H]2C1`, the IC50 is 7.47 µM and the fold change was determined as 3.84.
As to `COc1cccc(C2C3CN(C)CC=C3C(C#N)=C(N)C2(C#N)C#N)c1OC` (stereo not drawn), the IC50 was 0.83 µM and the fold change was 9.89.
As to `Cc1ccc(NC(=O)CN2C(=O)N/C(=C/c3cccn3-c3ccc(C(=O)O)cc3)C2=O)cc1`, the IC50 is > 54 µM (inactive) and the fold change is 1.2.
On to `Cc1cc(C=C2C(=O)c3ccccc3C2=O)c(C)n1-c1ccccc1`, for which the IC50 was 5.56 µM and the fold change came out at 9.41.
In the same order, the values of `Nc1cccc(C(=O)OCC(=O)Nc2cccc3c2C(=O)c2ccccc2C3=O)c1` are 1.81 µM and 2.03.
As for `O=C1CCC(=O)N1c1nc2n(n1)C(c1ccccc1)C=C(c1ccc(Br)cc1)N2` (stereo not drawn), the IC50 is > 54 µM (inactive) and the fold change was 1.53.
In the same order, the values of `Nc1ccc2nc3c(=O)n(C4CCCCC4)c(=O)[nH]c3nc2c1` are < 0.42 µM and 101.
For `CCN(CC)c1ccc(/C=C(/C#N)c2nc3ccc(C)cc3[nH]2)c(OC(C)C)c1` the same measures were 1.51 µM and 22.
In the same order, the values of `C=CCn1c(C)cc(C(=O)COC(=O)COc2ccccc2C#N)c1C` are > 54 µM (inactive) and 1.04.
For the compound `CC1CCCN(c2nc3ccccc3nc2C(C#N)S(=O)(=O)c2ccccc2)C1` (stereo not drawn), the IC50 was > 54 µM (inactive) and the fold change worked out at 1.37.
For `CCOc1ccc(-c2csc(NC(=O)CSC3=NC(=O)CN3C(C)=O)n2)c2ccccc12` the same measures were > 54 µM (inactive) and 0.947.
For `N=c1oc2cc(O)ccc2cc1C(=O)Nc1ccccn1` the same measures were 6.67 µM and 5.39.
As to `CCCC(=O)NC(Oc1ccc(C(C)=O)cc1)C(Cl)(Cl)Cl` (stereo not drawn), the IC50 was > 54 µM (inactive) and the fold change was found to be 0.993.
For `Cc1cc(-c2ccccc2)c(C#N)c(=S)[nH]1` the same measures were > 54 µM (inactive) and 1.04.
On to `COc1ccc(-c2cc(C(F)(F)F)c3c(n2)sc2c(O)cc(=O)[nH]c23)c(OC)c1`, for which the IC50 was 3.77 µM and the fold change came out at 3.12.
For `O=C(Nc1cccc(S(=O)(=O)NC2=NCCC2)c1)c1cc(-c2ccco2)nc2ccccc12` the same measures were 2.74 µM and 1.11.
For `O=C(N/N=C/c1cc(Cl)cc(Cl)c1O)c1ccncc1` the same measures were 1.81 µM and 5.72.
For `COc1ccc(-n2c(C)cc(/C=C3/SC(=S)N(C)C3=O)c2C)cc1` the same measures were 23.5 µM and 7.53.

What is called IC50 is the concentration that inhibits the measured activity by half.
